Molecules are shown by their SMILES.

The test deals with T1, human Nav1.8 channels (Homo sapiens, UniProt Q9Y5Y9).
T1 construct: expressed in transfected cells
T1 sequence (Q9Y5Y9 whole entry): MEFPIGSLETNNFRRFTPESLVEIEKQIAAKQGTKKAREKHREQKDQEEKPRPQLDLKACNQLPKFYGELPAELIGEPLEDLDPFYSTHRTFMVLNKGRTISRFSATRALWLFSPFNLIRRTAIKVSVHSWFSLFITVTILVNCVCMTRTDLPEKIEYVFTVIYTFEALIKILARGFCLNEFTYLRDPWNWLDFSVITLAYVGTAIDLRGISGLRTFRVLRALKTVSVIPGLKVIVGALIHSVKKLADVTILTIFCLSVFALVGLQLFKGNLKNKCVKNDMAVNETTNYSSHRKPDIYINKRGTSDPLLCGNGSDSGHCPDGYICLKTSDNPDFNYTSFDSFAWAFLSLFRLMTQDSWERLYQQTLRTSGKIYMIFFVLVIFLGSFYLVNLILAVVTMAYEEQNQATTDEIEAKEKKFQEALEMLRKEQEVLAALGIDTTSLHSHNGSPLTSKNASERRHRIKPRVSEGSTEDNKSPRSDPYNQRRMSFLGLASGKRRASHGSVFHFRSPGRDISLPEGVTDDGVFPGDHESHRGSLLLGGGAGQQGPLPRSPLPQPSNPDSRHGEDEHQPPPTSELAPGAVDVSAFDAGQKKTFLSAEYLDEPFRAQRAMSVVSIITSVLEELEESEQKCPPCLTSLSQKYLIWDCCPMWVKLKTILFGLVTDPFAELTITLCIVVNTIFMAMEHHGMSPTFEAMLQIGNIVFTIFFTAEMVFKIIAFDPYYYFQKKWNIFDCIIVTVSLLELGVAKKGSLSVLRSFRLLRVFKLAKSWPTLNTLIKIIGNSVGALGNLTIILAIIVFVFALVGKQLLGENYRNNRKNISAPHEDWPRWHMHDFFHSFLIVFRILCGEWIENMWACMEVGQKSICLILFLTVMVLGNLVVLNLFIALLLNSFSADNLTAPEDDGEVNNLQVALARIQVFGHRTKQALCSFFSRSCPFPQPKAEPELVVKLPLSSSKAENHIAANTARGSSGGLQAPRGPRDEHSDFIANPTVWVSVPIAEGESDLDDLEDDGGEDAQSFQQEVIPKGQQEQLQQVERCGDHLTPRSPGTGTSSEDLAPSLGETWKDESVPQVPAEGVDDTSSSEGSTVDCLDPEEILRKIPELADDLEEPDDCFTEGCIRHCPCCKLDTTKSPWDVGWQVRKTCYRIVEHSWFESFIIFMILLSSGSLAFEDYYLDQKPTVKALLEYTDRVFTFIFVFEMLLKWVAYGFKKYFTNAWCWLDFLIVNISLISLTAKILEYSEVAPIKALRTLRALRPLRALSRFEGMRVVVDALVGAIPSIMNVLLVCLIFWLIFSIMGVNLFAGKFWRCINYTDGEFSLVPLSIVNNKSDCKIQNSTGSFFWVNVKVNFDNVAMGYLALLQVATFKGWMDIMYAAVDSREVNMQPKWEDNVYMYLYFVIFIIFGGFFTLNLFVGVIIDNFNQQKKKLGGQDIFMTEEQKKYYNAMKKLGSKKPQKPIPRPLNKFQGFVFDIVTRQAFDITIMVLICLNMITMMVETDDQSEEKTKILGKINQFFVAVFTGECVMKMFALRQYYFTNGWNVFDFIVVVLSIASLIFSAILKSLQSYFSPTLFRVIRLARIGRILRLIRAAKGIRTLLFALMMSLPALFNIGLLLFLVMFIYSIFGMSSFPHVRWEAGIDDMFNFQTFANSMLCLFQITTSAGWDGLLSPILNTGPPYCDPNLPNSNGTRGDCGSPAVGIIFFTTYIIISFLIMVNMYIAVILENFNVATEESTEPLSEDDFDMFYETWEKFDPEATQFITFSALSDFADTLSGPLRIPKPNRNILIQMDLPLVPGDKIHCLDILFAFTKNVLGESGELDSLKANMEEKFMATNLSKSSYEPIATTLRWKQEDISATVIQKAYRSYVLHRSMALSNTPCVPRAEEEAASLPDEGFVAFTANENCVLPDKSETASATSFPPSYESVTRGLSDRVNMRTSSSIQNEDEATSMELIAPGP
The experiment in a line: Nav1.8 Qube automated patch-clamp assay. The format is cell-based. Particulars: human Nav1.8 stably expressed in HEK 293 cells; whole-cell voltage clamp, room temperature; resting or inactivated state not specified; read-out: IC50 values (nM) for Examples in the Nav1.8 Qube Assay. A digest of the protocol: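 Whole-cell patch clamp at room temperature on HEK293 cells stably expressing human Nav1.8. A 1 Hz train of ten 20 ms pulses to 10 mV from −90 mV holding, with −67 mV repolarization, was applied; first- and tenth-pulse peak currents gave resting and inactivated-state IC50s by Hill fitting.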
A word on the IC50: it is the concentration at which inhibition is half-maximal. For `NS(=O)(=O)c1cc(NC(=O)c2cc(C(F)(F)F)cnc2N2CCCC3(C2)CC3(F)F)ccn1` (single isomer, unassigned) [Example 67, (S or R)-2-(1,1-difluoro-5-azaspiro[2.5]octan-5-yl)-N-(2-sulfamoylpyridin-4-yl)-5-(trifluoromethyl)nicotinamide], the IC50 is 25 nM. `NS(=O)(=O)c1cc(NC(=O)c2cc(C(F)(F)F)c(C3CC3)nc2N2CCCC(F)(F)CC2)ccn1` [Example 185, 6-cyclopropyl-2-(4,4-difluoroazepan-1-yl)-N-(2-sulfamoylpyridin-4-yl)-5-(trifluoromethyl)nicotinamide]: the 50% inhibitory concentration (IC50) was 3.8 nM.

Consider `O=C(Nc1cc[nH]c(=O)c1)c1cc(C(F)(F)F)cnc1N1CCCC(F)(F)CC1` [Example 210, 2-(4,4-difluoroazepan-1-yl)-N-(2-oxo-1,2-dihydropyridin-4-yl)-5-(trifluoromethyl)-nicotinamide], for which the half-inhibitory concentration (IC50) is 86 nM.

On to `O=C(Nc1ccnc(S(=O)(=O)O)c1)c1cc(C(F)(F)F)cnc1N1CCC(F)(F)CC1` [Example 176, 4-(2-(4,4-difluoropiperidin-1-yl)-5-(trifluoromethyl)nicotinamido)pyridine-2-sulfonic acid], for which the IC50 turned out to be 1090 nM.

Take `NS(=O)(=O)c1cc(NC(=O)c2cccnc2N2CCC(F)(F)CC2)ccn1` [Example 26, 2-(4,4-difluoropiperidin-1-yl)-N-(2-sulfamoylpyridin-4-yl)nicotinamide]: the IC50 was 1860 nM. In the case of `NS(=O)(=O)c1cc(NC(=O)c2cc(C(F)(F)F)cnc2N2CCC[C@H]2C(F)(F)F)ccn1` [Example 126, N-(2-sulfamoylpyridin-4-yl)-5-(trifluoromethyl)-2-[(2S)-2-(trifluoromethyl)pyrrolidin-1-yl]pyridine-3-carboxamide] it was 21 nM.

In the case of `O=C(Nc1cncc(CO)c1)c1cc(C(F)(F)F)cnc1N1CCCCCC1` [Example 196, 2-(azepan-1-yl)-N-[5-(hydroxymethyl)-3-pyridyl]-5-(trifluoro-methyl)pyridine-3-carboxamide], the IC50 amounted to 5190 nM. In the case of `Cc1sc(S(N)(=O)=O)cc1NC(=O)c1cc(C(F)(F)F)cnc1N1CCCCCC1` [Example 114, 2-(azepan-1-yl)-N-(2-methyl-5-sulfamoyl-thiophen-3-yl)-5-(trifluoromethyl)pyridine-3-carboxamide] it was 95 nM; in that of `N#Cc1cncc(NC(=O)c2cc(C(F)(F)F)cnc2N2CCCCCC2)c1` [Example 193, 2-(azepan-1-yl)-N-(5-cyano-3-pyridyl)-5-(trifluoromethyl)-pyridine-3-carboxamide], 654 nM; in that of `CC1CN(c2ncc(C(F)(F)F)cc2C(=O)Nc2ccnc(S(N)(=O)=O)c2)CCC(C(F)(F)F)O1` (single isomer, unassigned) [Example 123, 2-((2S,7S or 2R,7R)-2-methyl-7-(trifluoromethyl)-1,4-oxazepan-4-yl)-N-(2-sulfamoylpyridin-4-yl)-5-(trifluoromethyl)nicotinamide], 28 nM.

Values taken from patent US20210387966A1, “2-AMINO-N-HETEROARYL-NICOTINAMIDES AS NAV1.8 INHIBITORS” (Merck Sharp & Dohme Corp., priority 2018, published 2021).
